Measured values taken from patent US20060063755A1, “Loxapine analogs and methods of use thereof” (priority 2004, published 2006).
Values joined by “and” are separate entries in the source; they are usually repeats but may differ in a detail not shown here. Equal values may be shown once.

Experiments:
[1] = biological target: hERG channel (Homo sapiens, UniProt Q12809); assay: hERG channel current block, whole cell recording in HEK293 cells; assay type: cell-based; conditions: HEK293 cells expressing hERG
hERG channel, sequence (Q12809 whole entry): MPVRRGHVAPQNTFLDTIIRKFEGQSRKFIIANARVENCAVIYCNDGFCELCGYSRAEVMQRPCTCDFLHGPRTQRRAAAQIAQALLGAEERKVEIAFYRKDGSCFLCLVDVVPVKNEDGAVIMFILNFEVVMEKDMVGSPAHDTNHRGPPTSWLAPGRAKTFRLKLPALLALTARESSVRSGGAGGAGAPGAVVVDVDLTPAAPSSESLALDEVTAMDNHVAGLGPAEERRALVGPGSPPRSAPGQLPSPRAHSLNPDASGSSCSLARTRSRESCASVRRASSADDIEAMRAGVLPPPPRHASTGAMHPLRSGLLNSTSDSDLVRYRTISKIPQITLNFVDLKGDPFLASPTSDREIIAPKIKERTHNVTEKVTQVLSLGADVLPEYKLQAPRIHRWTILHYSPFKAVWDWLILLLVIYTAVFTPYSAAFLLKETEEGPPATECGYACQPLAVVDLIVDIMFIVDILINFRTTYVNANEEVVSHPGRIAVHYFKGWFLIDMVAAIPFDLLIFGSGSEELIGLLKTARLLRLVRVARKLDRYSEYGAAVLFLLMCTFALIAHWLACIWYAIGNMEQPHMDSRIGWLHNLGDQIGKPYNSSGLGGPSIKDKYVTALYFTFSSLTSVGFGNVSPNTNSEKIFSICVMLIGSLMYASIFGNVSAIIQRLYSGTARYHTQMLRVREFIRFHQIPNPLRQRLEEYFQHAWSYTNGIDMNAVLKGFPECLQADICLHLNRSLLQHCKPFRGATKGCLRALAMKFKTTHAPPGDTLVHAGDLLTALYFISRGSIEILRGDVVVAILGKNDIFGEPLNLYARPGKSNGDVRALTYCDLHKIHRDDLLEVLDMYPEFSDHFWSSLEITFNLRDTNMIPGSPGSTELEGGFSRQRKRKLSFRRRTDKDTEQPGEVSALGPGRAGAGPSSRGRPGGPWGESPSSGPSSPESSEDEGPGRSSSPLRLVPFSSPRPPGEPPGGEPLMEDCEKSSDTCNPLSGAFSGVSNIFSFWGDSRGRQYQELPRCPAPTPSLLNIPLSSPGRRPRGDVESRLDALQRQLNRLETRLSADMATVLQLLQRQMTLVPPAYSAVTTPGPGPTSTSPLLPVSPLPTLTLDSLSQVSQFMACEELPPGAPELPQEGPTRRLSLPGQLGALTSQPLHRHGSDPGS
Procedure: Other in vitro selection criteria for loxapine analogs of the invention includes hERG binding.
(Brown and Rampe (2000)).
In one embodiment of the HERG assay, the positive control (i.e., reference compound) is terfenadine (Sigma, St. Louis Mo.), which has been shown, at a concentration of 60 nM, to block HERG current by approximately 75%. Test compounds are delivered in HEPES-buffered physiological saline (HB-PS)+0.1% dimethyl sulfoxide (DMSO).
Clin. Exp. Allergy 29 Suppl 3, 174-181.
If the final DMSO concentration must be greater than 0.3%, to reach a specified test article concentration, a separate vehicle control test with an n>2 was performed at the highest final DMSO concentration.
Each cell acted as its own control. […] One concentration of the positive control article (60 nM terfenadine) was applied to two cells (n≧2).

[2] = biological target: T1, H1 histamine receptor (Bos taurus, UniProt P30546); assay: H1 competitive binding assay, [3H]pyrilamine, bovine cerebellar membranes; conditions: bovine cerebellar membrane
T1 construct: the receptors were obtained from bovine cerebellar membrane tissue; from tissue; host or cells: bovine cerebellar membranes
T1 sequence (P30546 whole entry): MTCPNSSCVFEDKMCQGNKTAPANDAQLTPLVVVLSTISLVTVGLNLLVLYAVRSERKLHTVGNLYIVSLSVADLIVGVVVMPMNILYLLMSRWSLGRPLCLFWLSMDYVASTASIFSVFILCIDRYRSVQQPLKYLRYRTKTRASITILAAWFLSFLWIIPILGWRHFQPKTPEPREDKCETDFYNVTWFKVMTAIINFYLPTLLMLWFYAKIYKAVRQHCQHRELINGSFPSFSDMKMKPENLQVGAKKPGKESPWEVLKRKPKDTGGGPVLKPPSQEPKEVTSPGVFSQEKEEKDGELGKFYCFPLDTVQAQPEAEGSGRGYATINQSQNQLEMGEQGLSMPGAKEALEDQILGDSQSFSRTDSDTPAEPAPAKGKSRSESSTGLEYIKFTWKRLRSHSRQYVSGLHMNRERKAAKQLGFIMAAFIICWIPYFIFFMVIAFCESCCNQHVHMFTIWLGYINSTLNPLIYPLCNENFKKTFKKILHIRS

[3] = biological target: T2, M1 muscarinic receptor (Homo sapiens, UniProt P11229); assay: M1 binding assay, [3H]-scopolamine N-methyl chloride, CHO cells; conditions: human recombinant
T2 construct: purchased PerkinElmer, Inc., Wellesley, Mass; host or cells: CHO cells
T2 sequence (P11229 1-460): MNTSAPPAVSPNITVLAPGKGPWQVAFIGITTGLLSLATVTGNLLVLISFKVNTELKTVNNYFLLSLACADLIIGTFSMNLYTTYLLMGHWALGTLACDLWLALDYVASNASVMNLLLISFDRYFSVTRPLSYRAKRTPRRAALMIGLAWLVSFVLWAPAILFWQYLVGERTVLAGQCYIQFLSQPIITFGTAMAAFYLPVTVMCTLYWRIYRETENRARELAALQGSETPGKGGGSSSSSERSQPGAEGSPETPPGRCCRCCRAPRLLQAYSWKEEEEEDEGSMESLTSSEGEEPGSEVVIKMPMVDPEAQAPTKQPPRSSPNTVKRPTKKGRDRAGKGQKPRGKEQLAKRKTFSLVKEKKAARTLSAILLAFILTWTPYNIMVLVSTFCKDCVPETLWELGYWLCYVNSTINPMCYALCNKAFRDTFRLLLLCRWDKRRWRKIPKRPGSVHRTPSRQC

[4] = biological target: T3, M2 muscarinic receptor (Homo sapiens, UniProt P08172); assay: M2 binding assay, [3H]-scopolamine N-methyl chloride, CHO cells; conditions: human recombinant
T3 construct: purchased PerkinElmer, Inc., Wellesley, Mass; host or cells: CHO cells
T3 sequence (P08172 1-466): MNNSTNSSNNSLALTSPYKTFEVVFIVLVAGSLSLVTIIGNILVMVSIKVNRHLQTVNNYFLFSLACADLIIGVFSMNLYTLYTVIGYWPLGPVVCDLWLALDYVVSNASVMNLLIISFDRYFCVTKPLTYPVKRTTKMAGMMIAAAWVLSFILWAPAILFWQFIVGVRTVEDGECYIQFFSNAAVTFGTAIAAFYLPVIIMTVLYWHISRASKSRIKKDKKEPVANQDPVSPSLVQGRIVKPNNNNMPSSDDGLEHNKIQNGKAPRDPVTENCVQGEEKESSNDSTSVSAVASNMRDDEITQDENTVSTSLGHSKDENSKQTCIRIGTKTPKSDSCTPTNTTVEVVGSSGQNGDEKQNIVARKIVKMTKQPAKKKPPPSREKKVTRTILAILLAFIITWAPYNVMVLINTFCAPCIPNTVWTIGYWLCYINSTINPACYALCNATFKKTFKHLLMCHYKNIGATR

[5] = biological target: T4, M3 muscarinic receptor (Homo sapiens, UniProt P20309); assay: M3 binding assay, [3H]-scopolamine N-methyl chloride, CHO cells; conditions: human recombinant
T4 construct: purchased PerkinElmer, Inc., Wellesley, Mass; host or cells: CHO cells
T4 sequence (P20309 whole entry): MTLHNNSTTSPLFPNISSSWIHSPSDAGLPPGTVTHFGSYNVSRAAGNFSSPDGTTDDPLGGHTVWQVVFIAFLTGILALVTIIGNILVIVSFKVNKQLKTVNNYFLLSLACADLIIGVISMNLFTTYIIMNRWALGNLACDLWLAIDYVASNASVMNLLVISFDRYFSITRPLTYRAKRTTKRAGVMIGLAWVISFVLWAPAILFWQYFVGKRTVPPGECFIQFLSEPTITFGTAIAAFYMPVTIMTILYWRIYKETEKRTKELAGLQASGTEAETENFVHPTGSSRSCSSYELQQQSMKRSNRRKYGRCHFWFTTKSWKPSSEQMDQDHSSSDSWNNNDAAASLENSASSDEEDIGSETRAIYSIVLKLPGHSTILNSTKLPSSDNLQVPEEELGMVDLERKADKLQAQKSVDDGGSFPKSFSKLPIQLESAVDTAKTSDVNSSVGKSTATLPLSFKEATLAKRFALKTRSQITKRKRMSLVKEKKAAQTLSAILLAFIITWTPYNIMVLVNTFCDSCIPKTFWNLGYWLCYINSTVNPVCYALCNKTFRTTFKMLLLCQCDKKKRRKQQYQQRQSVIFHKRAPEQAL

[6] = biological target: alpha 1 receptors; assay: Alpha 1 receptor binding assay; conditions: read-out: Ki Alpha1
Procedure: (§1) Binding assays were performed using the disclosed sleep-inducing agents and derivatives selected from those listed in Table 1 in competitive binding assays with known standards for the H1 histamine receptor, and the M1, M2, and M3 muscarinic receptors, alpha 1 and alpha 2 receptors, and D1 and D2 receptors.

[7] = biological target: alpha 2 receptors; assay: Alpha 2 receptor binding assay; conditions: read-out: Ki Alpha2
Procedure: as §1

[8] = biological target: Dopamine, D1 (Homo sapiens, UniProt P21728); assay: Dopamine D1 (human recombinant) binding assay
Dopamine, D1, sequence (P21728 whole entry): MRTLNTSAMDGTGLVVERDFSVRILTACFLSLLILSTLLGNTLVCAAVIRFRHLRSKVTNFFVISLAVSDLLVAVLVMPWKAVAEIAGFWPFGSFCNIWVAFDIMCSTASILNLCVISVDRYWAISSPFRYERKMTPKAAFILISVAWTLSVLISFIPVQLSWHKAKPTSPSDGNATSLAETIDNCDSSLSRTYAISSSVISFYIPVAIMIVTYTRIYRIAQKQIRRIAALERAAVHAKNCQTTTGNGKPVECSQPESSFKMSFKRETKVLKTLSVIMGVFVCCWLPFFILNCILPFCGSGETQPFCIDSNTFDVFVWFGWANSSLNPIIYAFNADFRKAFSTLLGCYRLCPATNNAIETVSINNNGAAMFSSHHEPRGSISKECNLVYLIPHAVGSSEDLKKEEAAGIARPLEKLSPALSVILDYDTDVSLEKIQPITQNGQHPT
Procedure: as §1
Dopamine, D1 (human recombinant) binding assay was performed according to published procedures. See, e.g., Jarvie, et al. J. Recept Res., 13(1-4): 573-90 (1993); and Billard, et al. Life Sciences, 35(18): 1885-93 (1984), with modifications

[9] = biological target: D2 receptors (Homo sapiens, UniProt P14416); assay: Dopamine D2 binding assay (human)
D2 receptors, sequence (P14416 whole entry): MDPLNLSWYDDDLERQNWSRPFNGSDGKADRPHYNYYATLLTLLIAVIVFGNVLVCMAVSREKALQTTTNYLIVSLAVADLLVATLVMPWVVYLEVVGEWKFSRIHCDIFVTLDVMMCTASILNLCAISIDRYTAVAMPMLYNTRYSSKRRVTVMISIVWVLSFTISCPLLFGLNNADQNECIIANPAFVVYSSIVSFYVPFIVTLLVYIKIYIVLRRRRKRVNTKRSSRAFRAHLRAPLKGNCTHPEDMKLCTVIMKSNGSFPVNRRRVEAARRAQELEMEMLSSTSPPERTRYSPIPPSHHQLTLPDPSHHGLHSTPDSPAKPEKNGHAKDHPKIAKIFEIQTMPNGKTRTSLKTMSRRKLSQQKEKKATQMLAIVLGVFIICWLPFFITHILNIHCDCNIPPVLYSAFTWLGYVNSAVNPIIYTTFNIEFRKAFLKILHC
Procedure: as §1, with “receptors. […]” for “receptors.”

Row | Structure (SMILES) | hERG at 10 micromolar (% blocking of the hERG channel) [1] | Ki [2] | Ki [3] | Ki [4] | Ki [5] | Ki [6] | Ki [7] | Ki [8] | Ki [9]
1 | O=C(O)C1(CN2CCN(C3=Nc4ccccc4Oc4ccccc43)CC2)CC1 [Compound 2] | 19% | 0.0514 µM | > 10 µM | > 10 µM | > 10 µM | > 10 µM | > 10 µM | > 10 µM | > 10 µM
2 | CC(C)(CCN1CCN(C2=Nc3ccccc3Oc3ccccc32)CC1)C(=O)O [Compound 3] | 3.8% | 0.00733 µM | > 10 µM | > 10 µM | > 10 µM | > 10 µM | > 10 µM | 4.92 µM | 1.19 µM
3 | CC(C)(CN1CCN(C2=Nc3ccccc3Oc3ccc(Cl)cc32)CC1)C(=O)O [Compound 5] | 36% | 0.0239 µM | > 10 µM | > 10 µM | > 10 µM | 3.02 µM | > 10 µM | 4.52 µM | 1.61 µM
4 | CC(C)(CCN1CCN(C2=Nc3ccccc3Oc3ccc(Cl)cc32)CC1)C(=O)O [Compound 6] | 27% | 0.0138 µM | – | – | – | 2.73 µM | > 10 µM | 7.17 µM | 0.0961 µM
5 | O=C(O)C1(CN2CCN(C3=Nc4ccccc4Oc4ccc(Cl)cc43)CC2)CC1 [Compound 7] | 42.8% | 0.217 µM | > 10 µM | > 10 µM | > 10 µM | > 10 µM | > 10 µM | 1.73 µM | 0.222 µM
6 | CC(C)(CN1CCN(C2=Nc3ccccc3Oc3ccc(Br)cc32)CC1)C(=O)O [Compound 8] | 49% | 0.0117 µM | > 10 µM | > 10 µM | > 10 µM | > 10 µM | > 10 µM | 3.35 µM | 0.434 µM
7 | O=C(O)C1(CN2CCN(C3=Nc4ccccc4Oc4ccc(Br)cc43)CC2)CC1 [Compound 9] | 59% | 0.036 µM | > 10 µM | > 10 µM | > 10 µM | > 10 µM | > 10 µM | 1.12 µM | 0.0533 µM
8 | Cc1ccc2c(c1)C(N1CCN(CC(C)(C)C(=O)O)CC1)=Nc1ccccc1O2 [Compound 10] | 14% | 0.0396 µM | > 10 µM | > 10 µM | > 10 µM | > 10 µM | > 10 µM | 3.16 µM | 1.67 µM
9 | COc1ccc2c(c1)C(N1CCN(CC(C)(C)C(=O)O)CC1)=Nc1ccccc1O2 [Compound 12] | 7.20% | 0.137 µM | > 10 µM | > 10 µM | > 10 µM | > 10 µM | > 10 µM | 5.22 µM | 1.24 µM
10 | CC(C)(CN1CCN(C2=Nc3cc(Br)ccc3Oc3ccccc32)CC1)C(=O)O [Compound 17] | 30.10% | 0.012 µM | > 10 µM | > 10 µM | > 10 µM | 1.99 µM | – | 3.45 µM | 0.883 µM
11 | Cc1ccc2c(c1)Oc1ccc(C)cc1C(N1CCN(CC(C)(C)C(=O)O)CC1)=N2 [Compound 31] | 3.80% | 0.239 µM and 0.337 µM and 0.244 µM | > 10 µM | – | > 10 µM | > 10 µM | > 10 µM | 0.873 µM | 2.2 µM
